In patent publication US20250064947A1, “CYTOTOXICITY TARGETING CHIMERAS FOR FIBROBLAST ACTIVATION PROTEIN-EXPRESSING CELLS” (Glaxosmithkline Intellectual Property Development Limited, priority 2022, published 2025):

Biological target: T1, FAP (Homo sapiens, UniProt Q12884)
T1 construct: Target cells: WI-38 cells (typically 1000-20,000 cells per well); endogenous in cells; host or cells: WI-38 cells
T1 sequence (Q12884 1-760): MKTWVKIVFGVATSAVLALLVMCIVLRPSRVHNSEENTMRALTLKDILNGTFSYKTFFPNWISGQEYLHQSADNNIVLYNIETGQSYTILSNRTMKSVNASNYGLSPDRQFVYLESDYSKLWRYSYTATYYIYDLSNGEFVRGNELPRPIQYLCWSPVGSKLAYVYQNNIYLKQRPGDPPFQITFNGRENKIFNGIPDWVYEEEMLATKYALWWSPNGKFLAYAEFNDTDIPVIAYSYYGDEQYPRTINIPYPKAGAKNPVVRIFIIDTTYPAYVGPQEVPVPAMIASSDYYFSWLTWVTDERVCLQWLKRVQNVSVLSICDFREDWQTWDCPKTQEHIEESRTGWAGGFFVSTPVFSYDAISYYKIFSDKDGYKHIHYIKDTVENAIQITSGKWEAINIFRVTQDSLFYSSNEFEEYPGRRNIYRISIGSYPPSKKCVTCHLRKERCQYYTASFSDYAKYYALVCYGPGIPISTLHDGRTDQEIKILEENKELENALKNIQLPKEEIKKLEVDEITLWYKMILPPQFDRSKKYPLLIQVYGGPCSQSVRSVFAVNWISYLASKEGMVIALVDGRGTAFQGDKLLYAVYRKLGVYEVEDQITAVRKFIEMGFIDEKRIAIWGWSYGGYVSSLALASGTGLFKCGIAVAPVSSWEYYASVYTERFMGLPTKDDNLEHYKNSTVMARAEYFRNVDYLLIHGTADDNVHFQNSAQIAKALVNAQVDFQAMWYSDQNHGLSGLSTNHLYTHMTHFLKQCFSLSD
Experiment: Antibody dependent cellular cytotoxicity (ADCC) reporter assay
Format: cell-based
Settings: WI-38 target cells; Jurkat FcγRIIIa NFAT-luciferase reporter cells; with anti-cotinine antibody (SEQ ID NO: 11/12); 12-18 hours; average if more than one run; read-out: ADCC Reporter Assay pEC50 (converted)
Method: An antibody dependent cellular cytotoxicity (ADCC) reporter assay was conducted using the following four assay components: (i) ARM compound of Formula (I) targeting FAP (concentrations ranging from […]); (ii) anti-cotinine antibody having a heavy chain sequence of SEQ ID NO: 11 and a light chain sequence of SEQ ID NO: 12 (rabbit variable region with human IgG1 Fc domain containing DE mutation (S239D/I332E)) (concentrations ranging from 0.01 μg/mL 200 μg/mL); (iii) Target cells: WI-38 cells (typically 1000-20,000 cells per well); and (iv) Reporter cells—Jurkat cells engineered to express FcγRIIIa with a reporter gene luciferase under the control of the NFAT promoter (typically 3000-75,000 cells per well). Reagents were combined in final volume of 20 μL in 384—well tissue culture treated plate. All four assay components were incubated together for about 12-18 hours. Thereafter, BioGlo Detection reagent (Promega) was added to the wells to lyse the cells and provide a substrate for the luciferase reporter protein.
Luminescence signal was measured on a microplate reader capable of measuring luminescence and signal:background was calculated by dividing the signal of a test well by the signal obtained when no compound of formula (I) was included in the assay. EC50 calculations were done using Graphpad Prism Software, specifically a nonlinear regression curve fit (Y=Bottom+(Top−Bottom)/(1+10^((Log EC50−X)*HillSlope))).
ARMs compounds of Formula (I) were tested for ADCC activity in the above assay in one or more experimental runs and the results are shown in Table 3 below. Potency of the compounds of Formula (I) is reported as a pEC50 values. The pEC50 value is the negative log of the EC50 value, wherein the EC50 value is half maximal effective concentration measured in molar (M). For compounds tested in more than one experimental run, the pEC50 value is reported as an average.

Row | SMILES | EC50
1 | CN1C(=O)C[C@H](C(=O)NCCOCCOCCOCCOCCOCCOCCOCCOCCOCCOCCOCCOCCOCCOCCOCCOCCOCCOCCOCCOCCOCCOCCOCCNC(=O)COc2ccc3c(C(=O)NCC(=O)N4CC(F)(F)C[C@H]4C#N)ccnc3c2)[C@H]1c1cccnc1 [Example 13, N-(2-((S)-2-cyano-4,4-difluoropyrrolidin-1-yl)-2-oxoethyl)-7-((1-((2S,3S)-1-methyl-5-oxo-2-(pyridin-3-yl)pyrrolidin-3-yl)-1,75-dioxo-5,8,11,14,17,20,23,26,29,32,35,38,41,44,47,50,53,56,59,62,65,68,71-tricosaoxa-2,74-diazahexaheptacontan-76-yl)oxy)quinoline-4-carboxamide] | 1 nM
2 | CN(CCNC(=O)[C@H]1CC[C@H](NC(=O)CCCO[C@H]2CC[C@H](OCCNC(=O)[C@H]3CC[C@H](NC(=O)CCCO[C@H]4CC[C@H](OCCNC(=O)[C@H]5CC(=O)N(C)[C@@H]5c5cccnc5)CC4)CC3)CC2)CC1)c1ccc2nccc(C(=O)NCC(=O)N3CC(F)(F)C[C@@H]3C#N)c2c1 (racemic) [Example 1, N-(2-((S)-2-Cyano-4,4-difluoropyrrolidin-1-yl)-2-oxoethyl)-6-(methyl(2-((1R,4R)-4-(4-(((1R,4R)-4-(2-((1R,4R)-4-(4-(((1 S,4R)-4-(2-((2S,3S)-1-methyl-5-oxo-2-(pyridin-3-yl)pyrrolidine-3-carboxamido)ethoxy)cyclohexyl)oxy)butanamido)cyclohexane-1-carboxamido)ethoxy)cyclohexyl)oxy)butanamido)cyclohexane-1-carboxamido)ethyl)amino) quinoline-4-carboxamide] | 3.98 nM
